From US20260374782A1, “NEW COMPOUNDS, PROCESSES FOR PREPARING THE SAME AND THEIR USE AS DRUGS” (B&A ONCOMEDICAL, priority 2022, published 2026)

Target: T1, NKCC1 (Homo sapiens, UniProt P55011)
T1 construct: endogenous in cells; host or cells: native HEK293 cells
T1 sequence (P55011 1-1212): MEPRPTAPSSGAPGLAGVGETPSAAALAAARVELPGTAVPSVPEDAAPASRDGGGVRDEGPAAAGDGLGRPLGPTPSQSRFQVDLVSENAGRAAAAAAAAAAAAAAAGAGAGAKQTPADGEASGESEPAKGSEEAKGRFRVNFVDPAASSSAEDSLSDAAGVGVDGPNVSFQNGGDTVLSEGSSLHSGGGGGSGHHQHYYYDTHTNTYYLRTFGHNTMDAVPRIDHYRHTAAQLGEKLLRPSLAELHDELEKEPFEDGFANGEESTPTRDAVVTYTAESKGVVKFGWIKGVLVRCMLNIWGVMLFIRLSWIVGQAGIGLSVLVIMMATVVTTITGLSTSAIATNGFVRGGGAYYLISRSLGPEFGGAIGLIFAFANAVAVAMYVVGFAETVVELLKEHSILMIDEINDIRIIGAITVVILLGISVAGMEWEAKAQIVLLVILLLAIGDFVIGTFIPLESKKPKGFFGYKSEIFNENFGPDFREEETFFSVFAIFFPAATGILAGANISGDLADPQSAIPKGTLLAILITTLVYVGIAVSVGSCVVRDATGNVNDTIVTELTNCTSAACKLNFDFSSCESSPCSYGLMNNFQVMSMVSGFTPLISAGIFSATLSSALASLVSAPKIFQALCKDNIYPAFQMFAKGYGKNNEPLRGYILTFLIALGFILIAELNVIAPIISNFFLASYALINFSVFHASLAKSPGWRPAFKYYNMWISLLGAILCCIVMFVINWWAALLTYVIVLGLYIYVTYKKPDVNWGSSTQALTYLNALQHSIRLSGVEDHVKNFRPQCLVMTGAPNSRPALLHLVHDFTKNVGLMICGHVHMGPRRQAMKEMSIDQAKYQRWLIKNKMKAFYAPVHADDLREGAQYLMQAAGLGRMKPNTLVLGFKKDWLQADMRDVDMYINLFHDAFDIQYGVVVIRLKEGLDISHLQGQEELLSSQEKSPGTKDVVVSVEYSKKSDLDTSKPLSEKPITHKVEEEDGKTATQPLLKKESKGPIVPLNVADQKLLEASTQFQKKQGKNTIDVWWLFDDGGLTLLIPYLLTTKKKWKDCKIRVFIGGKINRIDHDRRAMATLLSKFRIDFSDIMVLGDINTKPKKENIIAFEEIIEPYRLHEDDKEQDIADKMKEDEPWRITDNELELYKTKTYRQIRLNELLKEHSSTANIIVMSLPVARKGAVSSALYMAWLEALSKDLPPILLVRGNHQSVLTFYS
Assay: NKCC1-mediated K+ influx (83Rb tracer uptake) in native HEK293 cells, hypertonic saline, 100 μM ouabain
Type: cell-based
Conditions: HEK293, no drug = 1000, 20 μM bumetanide = 0; for inhibition at 2 µM: read-out: NKCC1 mediated flux inhibition at 2 μM (%); for inhibition at 20 µM: read-out: NKCC1 mediated flux inhibition at 20 μM (%)
Text: The compounds of the invention have been tested for evaluating their potency in inhibiting the NKCC1 channel. The test used is a cellular assay expressing the NKCC1 channel: HEK293 cells are human cells derived from embryonic kidney. The inhibitory activity of the compounds has been evaluated in measuring the modification of the potassium flux at 2 concentrations, as described hereafter in the biological protocol.
HEK293 cells are human cells derived from embryonic kidney. They express at their plasma membranes proteins that transport potassium (K^+). Among these proteins is the Na—K-2Cl cotransporter or NKCC1. This transporter contributes to 40-50% of K^+ influx into the cells. The remaining of K^+ transport is mediated by the Na^+/K^+-ATPase (also known as Na^+ pump or Na^+/K^+ pump), which also contributes some 40-50% of the influx basal flux of 5-10%, which is mainly due to K^+ channels (FIG. 1A). Thus, the HEK293 cell in culture is an ideal model to study the function of NKCC1 and test compounds that inhibits its transport.
The assay to measure NKCC1 function was optimized to obtain the next signal to noise ratio: • a. A slightly hypertonic saline was used to stimulate NKCC1 function. […] By consistent use of this simple manipulation, the NKCC1 signal was enhanced. • b. Ouabain, an inhibitor of the Na^+/K^+ pump, was used at 100 μM. […] A radioactive isotope was used to trace the inward movement of K^+ into the cell (influx). This allowed for highly precise measurements of K^+ influx. Because radioactive isotopes of K^+ had very short half-lives, radioactive isotopes of Rb^+ were used. Rubidium was a monovalent cation which was readily transporter at the K^+ binding site by many transporters and channels. Rb^+ was a congener of K^+, being transported undistinguishably from K^+. ^83Rb (half-life of 83 days) was used since ^86Rb (half-life of 19.6 days) is no longer commercially available. The ^83Rb isotope was used as a tracer, i.e. at a very low amounts to trace the movement of K^+.
K^+ influx measured in native HEK293 was in the range of 7000-9000 pmoles K^+ per mg protein per min. In the presence of 20 μM Ref 1, the flux was reduced to 600-900 pmoles K^+ per mg protein per min. Thus, there was a very solid dynamic range. In each experiment, the flux without Ref 1 was set at 1000 (equivalent to 100.0%) and the flux with 20 μM bumetanide was set at 0 (equivalent to 0%).
For the flux experiments, 35-mm culture dishes were coated with 0.1 mg/mL poly-L-lysine and placed in large 20×20 [square] dishes. For convenience, the poly-L-lysine was placed in the dishes the day before the experiment. Before plating the cells, the poly-L-lysine was aspirated, and each dish washed twice with 1 mL sterile water. Cells from 3 confluent 10-cm dishes were detached with trypsin and resuspended into 49 mL complete medium. Cells (2 mL/35-mm dish) were plated in 24 dishes and allowed to attach for at least 2 hours prior to the flux. This setup allowed the measurement of 8 conditions in triplicates. For the flux, culture medium was aspirated and replaced with 1 mL saline for a preincubation period of 15 min. The saline was aspirated and replaced with 1 mL identical saline containing 0.25 μCi/mL 83Rb for 15 min. Following the uptake period, the radioactive solution was aspirated, and the cells washed 3 times with ice-cold saline. Cells were then lyzed with 500 μl 0.25N NaOH for 1 hour, neutralized with 250 μL glacial acetic acid and 300 μL and 30 μL aliquots were used for μ-scintillation counting and protein assays, respectively. Two 5 μL of each flux solution was used to determine cpm and relate those cpm to nmoles K^+. Potassium influx was expressed in nmoles K^+ per mg protein per min. Note that within an experiment, groups of 3 dishes were separated 2 min apart for easy handling. Also note that since all dishes were plated with a homogeneous cell suspension, and all dishes were identical, the protein content was measured from a subset of dishes. […]

Structure (SMILES)	inhibition at 2 µM	inhibition at 20 µM
CCCCNc1cc(C(=O)OC)cc(S(=N)(=O)NCC2CCN(C(C)=O)CC2)c1Oc1ccccc1 (centres unmarked) [Compound 49, methyl 3-[[(1-acetyl-4-piperidyl)methylamino]sulfonimidoyl]-5-(butylamino)-4-phenoxy-benzoate]	30 to 50%	10 to 30%
CCCCNc1cc(C(=O)OC)cc(S(=N)(=O)NCC2CCN(C)CC2)c1Oc1ccccc1 (centres unmarked) [Compound 50, methyl 3-(butylamino)-5-[[(1-methyl-4-piperidyl)methylamino]sulfonimidoyl]-4-phenoxy-benzoate]	30 to 50%	30 to 50%
CCCCNc1cc(C(=O)O)cc(S(=N)(=O)N(C)C)c1Oc1ccccc1 (centres unmarked) [Compound 52, 3-(butylamino)-5-(dimethylaminosulfonimidoyl)-4-phenoxy-benzoic acid]	30 to 50%	50 to 75%
CCCCNc1cc(C(=O)O)cc(S(=N)(=O)N2CCCC2)c1Oc1ccccc1 (centres unmarked) [Compound 53, 3-(butylamino)-4-phenoxy-5-(pyrrolidin-1-ylsulfonimidoyl)benzoic acid]	30 to 50%	≥ 75%
CCCCNc1cc(C(=O)O)cc(S(=N)(=O)N2CCCCC2)c1Oc1ccccc1 (centres unmarked) [Compound 54, 3-(butylamino)-4-phenoxy-5-(1-piperidylsulfonimidoyl)benzoic acid]	30 to 50%	≥ 75%
CCCCNc1cc(C(=O)O)cc(S(=N)(=O)N(C)CC)c1Oc1ccccc1 (centres unmarked) [Compound 55, 3-(butylamino)-5-[[ethyl(methyl)amino]sulfonimidoyl]-4-phenoxy-benzoic acid]		50 to 75%
CCCCNc1cc(C(=O)O)cc(S(=N)(=O)N2CCOCC2)c1Oc1ccccc1 (centres unmarked) [Compound 56, 3-(butylamino)-5-(morpholinosulfonimidoyl)-4-phenoxy-benzoic acid]		30 to 50%
CCCCNc1cc(C(=O)O)cc(S(=N)(=O)NCc2ccccc2)c1Oc1ccccc1 (centres unmarked) [Compound 58, 3-[(benzylamino)sulfonimidoyl]-5-(butylamino)-4-phenoxy-benzoic acid]	30 to 50%	≥ 75%
CCCCNc1cc(C(=O)O)cc(S(=N)(=O)NCCOC)c1Oc1ccccc1 (centres unmarked) [Compound 59, 3-(butylamino)-5-[(2-methoxyethylamino)sulfonimidoyl]-4-phenoxy-benzoic acid]		50 to 75%
CCCCNc1cc(C(=O)O)cc(S(=N)(=O)NC2CC2)c1Oc1ccccc1 (centres unmarked) [Compound 60, 3-(butylamino)-5-[(cyclopropylamino)sulfonimidoyl]-4-phenoxy-benzoic acid]	10 to 30%	50 to 75%
CCCCNc1cc(C(=O)O)cc(S(=N)(=O)N2CCCCCC2)c1Oc1ccccc1 (centres unmarked) [Compound 61, 3-(azepan-1-ylsulfonimidoyl)-5-(butylamino)-4-phenoxy-benzoic acid]	30 to 50%	≥ 75%
CCCCNc1cc(C(=O)O)cc(S(=N)(=O)NCC2CCCCC2)c1Oc1ccccc1 (centres unmarked) [Compound 62, 3-(butylamino)-5-[(cyclohexylmethylamino)sulfonimidoyl]-4-phenoxy-benzoic acid]	10 to 30%	≥ 75%
CCCCNc1cc(C(=O)O)cc(S(=N)(=O)NCC2CCOCC2)c1Oc1ccccc1 (centres unmarked) [Compound 63, 3-(butylamino)-4-phenoxy-5-[(tetrahydropyran-4-ylmethylamino)sulfonimidoyl]benzoic acid]		30 to 50%
CCCCNc1cc(C(=O)O)cc(S(=N)(=O)Nc2cccnc2)c1Oc1ccccc1 (centres unmarked) [Compound 64, 3-(butylamino)-4-phenoxy-5-[(3-pyridylamino)sulfonimidoyl]benzoic acid]	50 to 75%	≥ 75%
CCCCNc1cc(C(=O)O)cc(S(=N)(=O)Nc2cccc(OC)c2)c1Oc1ccccc1 (centres unmarked) [Compound 65, 3-(butylamino)-5-[(3-methoxyanilino)sulfonimidoyl]-4-phenoxy-benzoic acid]	50 to 75%	≥ 75%
CCCCNc1cc(C(=O)O)cc(S(=N)(=O)N2CCC(c3ccccc3)CC2)c1Oc1ccccc1 (centres unmarked) [Compound 66, 3-(butylamino)-4-phenoxy-5-[(4-phenyl-1-piperidyl)sulfonimidoyl]benzoic acid]	30 to 50%	≥ 75%
CCCCNc1cc(C(=O)O)cc(S(=N)(=O)Nc2ccn(C)n2)c1Oc1ccccc1 (centres unmarked) [Compound 67, 3-(butylamino)-5-[[(1-methylpyrazol-3-yl)amino]sulfonimidoyl]-4-phenoxy-benzoic acid]	50 to 75%	≥ 75%
CCCCNc1cc(C(=O)O)cc(S(=N)(=O)NCc2cncnc2)c1Oc1ccccc1 (centres unmarked) [Compound 68, 3-(butylamino)-4-phenoxy-5-[(pyrimidin-5-ylmethylamino)sulfonimidoyl]benzoic acid]	50 to 75%	≥ 75%
CCCCNc1cc(C(=O)O)cc(S(=N)(=O)N2CC3CCC(C2)O3)c1Oc1ccccc1 (centres unmarked) [Compound 69, 3-(butylamino)-5-(8-oxa-3-azabicyclo[3.2.1]octan-3-ylsulfonimidoyl)-4-phenoxy-benzoic acid]	50 to 75%	50 to 75%
CCCCNc1cc(C(=O)O)cc(S(=N)(=O)Nc2cccc(Cl)c2)c1Oc1ccccc1 (centres unmarked) [Compound 70, 3-(butylamino)-5-[(3-chloroanilino)sulfonimidoyl]-4-phenoxy-benzoic acid]	≥ 75%	≥ 75%
CCCCNc1cc(C(=O)O)cc(S(=N)(=O)NCc2cccc(Cl)c2)c1Oc1ccccc1 (centres unmarked) [Compound 71, 3-(butylamino)-5-[[(3-chlorophenyl)methylamino]sulfonimidoyl]-4-phenoxy-benzoic acid]	≥ 75%	≥ 75%
